Data reported in PMC10632401, “Cell-free biosynthesis combined with deep learning accelerates de novo-development of antimicrobial peptides” (Nature Communications, 2023).

Columns and labels:
Escherichia coli MG1655 = test: Outer membrane vesicle (OMV) release after AMP treatment; format: cell-based; settings: ¼ MIC, 90 min
Method: Escherichia coli MG1655 was grown on MacConkey agar (Carl Roth, Karlsruhe, Germany) plates overnight. For overnight culture, a single colony was used for inoculation of 2 mL LB media at 37 °C, 160 rpm (MaxQ 6000, Thermo Fisher Scientific, Karlsruhe, Germany). Bacterial culture was transferred to 10 mL fresh LB media and incubated (1 h, 37 °C, 160 rpm). The required amount of bacteria was treated with ¼ MIC of the AMPs #3, #5, #10, #13, #15, #16, and #27, left untreated for control or was treated with acetic acid and BSA as solvent control (90 min, 37 °C, 160 rpm). Samples were centrifuged (4,500 x g, 15 min, 4 °C; Multifuge X3R, Thermo Fisher Scientific), the supernatant was sterile filtered (0.22 µm) and afterwards concentrated by the factor of 20 using 100 kDa molecular weight cut-off filters (Merck KGaA, Darmstadt, Germany). To determine the number of released vesicles, samples were measured by nano-flow cytometry (nFCM) using a NanoAnalyzer (NanoFCM Co., Ltd, Nottingham, UK)[64].

E. coli = format: cell-based, Escherichia coli; settings: daily passage from cells grown at half-MIC, n=3

| Molecule | release of outer membrane vesicles (OMV) compared to untreated E. coli (Escherichia coli MG1655) | increase in MIC during 21 days of serial passage (E. coli) |
| --- | --- | --- |
| polymyxin B | only significantly different group | – |
| C[C@@H](O)[C@H]1C(=O)N2C(C(=O)O)=C(SCCN=CN)C[C@H]12 [imipenem] | – | up to 8 fold |
